Where “and” joins values, the source holds several entries; their conditions need not be identical. Equal entries are not always repeated.
Columns and labels:
Assay in all cases: normalised viability (% of control), CellTiter-Blue; higher = more viable cells (about 100 = DMSO control)
MDA-MB-436 [1] = details: incubation time: 72 h
Procedure, shortened: (§1)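 The reported figure is normalised viability at a single listed concentration of the series. Breast cancer cell lines (20 µl suspension) went onto 384-well plates holding compound in 5 µl medium for 72 h. CellTiter-Blue (2.5 µl, 2 h, 37 °C) was read by fluorescence at 560/590 nm, and each plate was scaled to vehicle at 100 and a positive kill control at 0.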

Hs578T [2] = details: incubation time: 72 h
Procedure, shortened: as §1

MDA-MB-231 [3] = details: incubation time: 72 h
Procedure, shortened: as §1

HCC1937 [4] = details: incubation time: 72 h
Procedure, shortened: as §1

MDA-MB-468 [5] = details: incubation time: 72 h
Procedure, shortened: as §1

BT-549 [6] = details: incubation time: 72 h
Procedure, shortened: as §1

HCC1599 [7] = details: incubation time: 72 h
Procedure, shortened: as §1

DU-4475 [8] = details: incubation time: 72 h
Procedure, shortened: as §1

BT-474 = details: incubation time: 72 h
Procedure, shortened: as §1

CAL-85-1 [9] = details: incubation time: 72 h
Procedure, shortened: as §1

CAL-51 [10] = details: incubation time: 72 h
Procedure, shortened: as §1

CAL-148 [11] = details: incubation time: 72 h
Procedure, shortened: as §1

MDA-MB-453 [12] = details: incubation time: 72 h
Procedure, shortened: as §1

MDA-MB-436 [13] = details: incubation time: 72 h; remark: listed apart in the source
Procedure, shortened: as §1

Hs578T [14] = details: incubation time: 72 h; remark: listed apart in the source
Procedure, shortened: as §1

SK-BR-3 = details: incubation time: 72 h
Procedure, shortened: as §1

MDA-MB-231 [15] = details: incubation time: 72 h; remark: listed apart in the source
Procedure, shortened: as §1

HCC1937 [16] = details: incubation time: 72 h; remark: listed apart in the source
Procedure, shortened: as §1

MDA-MB-468 [17] = details: incubation time: 72 h; remark: listed apart in the source
Procedure, shortened: as §1

BT-549 [18] = details: incubation time: 72 h; remark: listed apart in the source
Procedure, shortened: as §1

HCC1599 [19] = details: incubation time: 72 h; remark: listed apart in the source
Procedure, shortened: as §1

CAL-120 = details: incubation time: 72 h
Procedure, shortened: as §1

MFM-223 = details: incubation time: 72 h
Procedure, shortened: as §1

HCC1143 = details: incubation time: 72 h
Procedure, shortened: as §1

HDQ-P1 [20] = details: incubation time: 72 h
Procedure, shortened: as §1

CAL-85-1 [21] = details: incubation time: 72 h; remark: listed apart in the source
Procedure, shortened: as §1

CAL-51 [22] = details: incubation time: 72 h; remark: listed apart in the source
Procedure, shortened: as §1

MDA-MB-453 [23] = details: incubation time: 72 h; remark: listed apart in the source
Procedure: (§2)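 DSRT, CellTiter-Blue viability, 72 h incubation. Signal is normalised to DMSO and benzethonium chloride controls. Value is the normalised response at dose 7.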

DU-4475 [24] = details: incubation time: 72 h; remark: listed apart in the source
Procedure: as §2

HDQ-P1 [25] = details: incubation time: 72 h; remark: listed apart in the source
Procedure: as §2

CAL-85-1 [26] = details: incubation time: 72 h; remark: listed apart in the source
Procedure: as §2

CAL-51 [27] = details: incubation time: 72 h; remark: listed apart in the source
Procedure: as §2

CAL-148 [28] = details: incubation time: 72 h; remark: listed apart in the source
Procedure: as §2

HDQ-P1 [29] = details: 10 nM; incubation time: 72 h
Procedure, shortened: as §1

Cc1ccc(NC(=O)c2ccc(CN3CCN(C)CC3)cc2)cc1Nc1nccc(-c2cccnc2)n1 [Imatinib]
normalised viability (MDA-MB-436 [1]; 10000 nM): 97.6% and 106%
normalised viability (Hs578T [2]; 10000 nM): 95.3% and 109%
normalised viability (MDA-MB-231 [3]; 10000 nM): 107% and 104%
normalised viability (HCC1937 [4]; 10000 nM): 88%
normalised viability (MDA-MB-468 [5]; 10000 nM): 103% and 99.3%
normalised viability (BT-549 [6]; 10000 nM): 93% and 76.6%
normalised viability (HCC1599 [7]; 10000 nM): 97.8% and 103%
normalised viability (DU-4475 [8]; 100 nM): 89.4% and 111%
normalised viability (BT-474; 10000 nM): 104% and 96.8%
normalised viability (CAL-85-1 [9]; 100 nM): 90.9%
normalised viability (CAL-51 [10]; 100 nM): 102% and 98.4%
normalised viability (CAL-148 [11]; 100 nM): 85.4% and 91.8%
normalised viability (MDA-MB-453 [12]; 3 nM): 129% and 110%
normalised viability (MDA-MB-436 [13]; 10 nM): 117% and 111%
normalised viability (Hs578T [14]; 10 nM): 106% and 119%
normalised viability (SK-BR-3; 10 nM): 97.5% and 99.9%
normalised viability (MDA-MB-231 [15]; 10 nM): 81% and 98.2%
normalised viability (HCC1937 [16]; 10 nM): 89.5% and 92.4%
normalised viability (MDA-MB-468 [17]; 10 nM): 95.9% and 102%
normalised viability (BT-549 [18]; 10 nM): 87.7% and 100%
normalised viability (HCC1599 [19]; 10 nM): 105% and 120%
normalised viability (CAL-120; 10 nM): 81.6% and 90.2%
normalised viability (MFM-223; 10 nM): 95.9% and 112%
normalised viability (HCC1143; 10 nM): 79% and 81.2%
normalised viability (HDQ-P1 [20]; 3 nM): 132% and 110%
normalised viability (CAL-85-1 [21]; 3 nM): 91.5% and 91.4%
normalised viability (CAL-51 [22]; 3 nM): 111% and 108%
normalised viability (MDA-MB-453 [23]; 1000 nM): 110% and 92.5%
normalised viability (DU-4475 [24]; 1000 nM): 115% and 108%
normalised viability (HDQ-P1 [25]; 1000 nM): 106% and 122%
normalised viability (CAL-85-1 [26]; 1000 nM): 92.6% and 82.5%
normalised viability (CAL-51 [27]; 1000 nM): 106% and 102%
normalised viability (CAL-148 [28]; 1000 nM): 82.7% and 100%

Cn1c(=O)n(-c2ccc(C(C)(C)C#N)cc2)c2c3cc(-c4cnc5ccccc5c4)ccc3ncc21 [NVP-BEZ235]
normalised viability (MDA-MB-436 [1]; 1000 nM): 63.2%
normalised viability (Hs578T [2]; 1000 nM): 24.7%
normalised viability (MDA-MB-231 [3]; 1000 nM): 27.1%
normalised viability (HCC1937 [4]; 1000 nM): 45.5%
normalised viability (MDA-MB-468 [5]; 1000 nM): 28.1%
normalised viability (BT-549 [6]; 1000 nM): 18.2%
normalised viability (HCC1599 [7]; 1000 nM): 55.2%
normalised viability (DU-4475 [8]; 10 nM): 107%
normalised viability (HDQ-P1 [29]): 69%
normalised viability (BT-474; 1000 nM): 41%
normalised viability (CAL-85-1 [9]; 10 nM): 68.6%
normalised viability (CAL-51 [10]; 10 nM): 54.6%
normalised viability (CAL-148 [11]; 10 nM): 73.5%
normalised viability (MDA-MB-453 [12]; 0.3 nM): 110%
normalised viability (MDA-MB-436 [13]; 1 nM): 126%
normalised viability (Hs578T [14]; 1 nM): 100%
normalised viability (SK-BR-3; 1 nM): 105%
normalised viability (MDA-MB-231 [15]; 1 nM): 97.4%
normalised viability (HCC1937 [16]; 1 nM): 128%
normalised viability (MDA-MB-468 [17]; 1 nM): 102%
normalised viability (BT-549 [18]; 1 nM): 101%
normalised viability (HCC1599 [19]; 1 nM): 104%
normalised viability (CAL-120; 1 nM): 89.8%
normalised viability (MFM-223; 1 nM): 99.1%
normalised viability (HCC1143; 1 nM): 83.5%
normalised viability (HDQ-P1 [20]; 0.3 nM): 110%
normalised viability (CAL-85-1 [21]; 0.3 nM): 96.6%
normalised viability (CAL-51 [22]; 0.3 nM): 105%
normalised viability (MDA-MB-453 [23]; 100 nM): 16.8%
normalised viability (DU-4475 [24]; 100 nM): 37.2%
normalised viability (HDQ-P1 [25]; 100 nM): 38.3%
normalised viability (CAL-85-1 [26]; 100 nM): 31.4%
normalised viability (CAL-51 [27]; 100 nM): 22.3%
normalised viability (CAL-148 [28]; 100 nM): 16.1%
